This note sets out measurements from US12577231B2, “Androgen receptor PROTACS” (GlaxoSmithKline Intellectual Property Development Limited, priority 2023, dated 2026).

What is called Dmax is the largest share of the target that was removed.

For assay [1], the target named is T1, Androgen Receptor, MDA-PCa-2b (AR T878A/L702H) (Homo sapiens, UniProt P10275, L702H/T878A).
T1 construct: host or cells: MDA-PCa-2b
T1 sequence (P10275 1-920 L702H/T878A): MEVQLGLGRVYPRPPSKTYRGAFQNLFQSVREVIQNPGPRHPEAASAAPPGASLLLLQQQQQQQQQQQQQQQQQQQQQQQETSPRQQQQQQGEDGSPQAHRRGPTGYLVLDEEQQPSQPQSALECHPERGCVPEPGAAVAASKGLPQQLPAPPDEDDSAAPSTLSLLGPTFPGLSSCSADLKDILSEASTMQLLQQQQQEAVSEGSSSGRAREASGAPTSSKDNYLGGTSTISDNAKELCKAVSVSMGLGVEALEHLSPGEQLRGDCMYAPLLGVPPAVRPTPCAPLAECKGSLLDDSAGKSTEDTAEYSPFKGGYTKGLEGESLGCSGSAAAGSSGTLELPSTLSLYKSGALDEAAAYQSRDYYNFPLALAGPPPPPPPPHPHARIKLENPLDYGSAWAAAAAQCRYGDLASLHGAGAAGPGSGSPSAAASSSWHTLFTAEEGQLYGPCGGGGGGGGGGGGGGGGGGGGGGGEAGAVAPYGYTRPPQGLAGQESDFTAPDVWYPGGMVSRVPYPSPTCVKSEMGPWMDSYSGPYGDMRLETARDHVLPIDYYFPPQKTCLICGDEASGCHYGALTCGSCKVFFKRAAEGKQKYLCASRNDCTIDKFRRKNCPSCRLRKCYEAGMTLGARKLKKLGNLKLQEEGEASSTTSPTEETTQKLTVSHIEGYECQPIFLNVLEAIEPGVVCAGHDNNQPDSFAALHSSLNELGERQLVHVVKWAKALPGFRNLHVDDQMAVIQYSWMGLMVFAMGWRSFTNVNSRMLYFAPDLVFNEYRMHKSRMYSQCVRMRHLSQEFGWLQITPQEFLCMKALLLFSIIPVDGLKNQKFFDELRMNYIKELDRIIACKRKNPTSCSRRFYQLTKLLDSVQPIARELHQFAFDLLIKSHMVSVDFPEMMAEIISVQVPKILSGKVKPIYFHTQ
The experiment in a line: Androgen Receptor Degradation-Imaging Assay, MDA-PCa-2b cell line. The assay is classed as cell-based. To be noted: 16 hours treatment, maximum observed degradation. The protocol: (§1) Degradation of Androgen Receptor (AR) protein in human prostate cancer cell lines (MDA-PCa-2b (AR T878A/L702H), LNCaP (AR T878A), VCaP (AR wild type and amplified) 22RV1 (AR H875Y) and PC3 (AR negative control)) treated with AR PROTACs was quantified using immunofluorescence. Prostate cancer cells were plated (MDA-PCa-2b, and VCaP 16,000 cells/well; LNCaP and 22RV1 32,000 cells/well, and PC3 8,000 cells/well) in an optical bottom 96-well cell culture plate and allowed to attach overnight. The prostate cancer cell lines were treated for 16 hours with a 10-point 3-fold dilution series (dose range=0.02 nM to 333 nM). PC3 is included as an AR negative control and not treated with compound. Cells are fixed and permeabilized with 4% formaldehyde, blocked with 10% goat serum in immunofluorescence (IF) buffer (130 mM NaCl, 7 mM Na2HPO4, 3.5 mM NaH2PO4, 7.7 mM NaN3, 0.1% BSA, 0.2% Triton X, 0.05% Tween 20) prior to overnight incubation with rabbit antibody specific for C terminus of AR (commercially available from RevMaB Biosciences). Following washes with IF buffer, cells were incubated with fluorescent secondary antibody (Goat anti-rabbit Alexa 647; commercially available from Invitrogen) and Hoechst nuclear stain (commercially available from Themo Scientific) prior to quantification of nuclear AR levels via Opera Phenix high-content fluorescent imager using a 40× water objective. Image analysis was performed with Harmony software.
(§2) The averaged nuclear Alexa 647 median fluorescence intensity (MFI) of PC3 cells is subtracted from the nuclear Alexa 647 MFI of PROTAC treated and DMSO control treated cells. % AR remaining is calculated for PROTAC treatments as a percent of the DMSO control (MFI PROTAC treated/MFI DMSO control treated)*100). DC50 and the Dmax values, were obtained from these normalised values fitted with a 4-parameter sigmoidal response curve (Xlfit software). The DC50 is the interpolated concentration of PROTAC corresponding to 50% of the protein being degraded, and the Dmax parameter is the maximum experimentally observed degradation.

The target in assay [2] is T2, Androgen Receptor, VCaP (AR wild type and amplified) (Homo sapiens, UniProt P10275).
T2 construct: endogenous in cells; host or cells: VCaP
T2 sequence (P10275 1-920): T1 sequence (P10275 1-920 L702H/T878A) with H702L, A878T
The experiment in a line: Androgen Receptor Degradation-Imaging Assay, VCaP cell line. The assay is classed as cell-based. To be noted: 16 hours treatment, maximum observed degradation. On the procedure:
as §1, §2

Residue numbers refer to the chain shown, from its start.

Take `COc1c(C#N)ccc(O[C@H]2C(C)(C)[C@H](NC(=O)c3ccc(N4CCC(CN5CCC(n6ncc7c(N8CCC(=O)NC8=O)cccc76)CC5)CC4)c(F)c3)C2(C)C)c1C` [Example 5, N-((1r,3r)-3-(4-Cyano-3-methoxy-2-methylphenoxy)-2,2,4,4-tetramethylcyclobutyl)-4-(4-((4-(4-(2,4-dioxotetrahydropyrimidin-1(2H)-yl)-1H-indazol-1-yl)piperidin-1-yl)methyl)piperidin-1-yl)-3-fluorobenzamide]: the Dmax in assay [1] and in assay [2] was at least 80% in each case.
As for `CC1(C)[C@H](NC(=O)c2ccc(N3CCC(CN4CCC(n5ncc6c(N7CCC(=O)NC7=O)cccc65)CC4)CC3)c(F)c2)C(C)(C)[C@H]1Oc1ccc(C#N)c2ncccc12` [Example 6, N-((1r,3r)-3-((8-Cyanoquinolin-5-yl)oxy)-2,2,4,4-tetramethylcyclobutyl)-4-(4-((4-(4-(2,4-dioxotetrahydropyrimidin-1(2H)-yl)-1H-indazol-1-yl)piperidin-1-yl)methyl)piperidin-1-yl)-3-fluorobenzamide], the greatest degradation seen (Dmax) in assay [1] and in assay [2] was at least 80% in each case.
With `CC1(C)[C@H](NC(=O)c2ccc(N3CCC(CN4CCC(n5ncc6c(N7CCC(=O)NC7=O)cccc65)CC4)CC3)c(F)c2)C(C)(C)[C@H]1Oc1ccc(C#N)c2c1CCCO2` [Example 8, N-((1r,3r)-3-((8-Cyanochroman-5-yl)oxy)-2,2,4,4-tetramethylcyclobutyl)-4-(4-((4-(4-(2,4-dioxotetrahydropyrimidin-1(2H)-yl)-1H-indazol-1-yl)piperidin-1-yl)methyl)piperidin-1-yl)-3-fluorobenzamide], the Dmax in assay [1] and in assay [2] was at least 80% each time.
In the case of `COc1cc(O[C@H]2C(C)(C)[C@H](NC(=O)c3ccc(N4CCC(CN5CCC(n6ncc7c(N8CCC(=O)NC8=O)cccc76)CC5)CC4)cc3)C2(C)C)ccc1C#N` [Example 15, N-((1r,3r)-3-(4-Cyano-3-methoxyphenoxy)-2,2,4,4-tetramethylcyclobutyl)-4-(4-((4-(4-(2,4-dioxotetrahydropyrimidin-1(2H)-yl)-1H-indazol-1-yl)piperidin-1-yl)methyl)piperidin-1-yl)benzamide], the Dmax in assay [1] and in assay [2] was at least 80% each time.
As to `COc1cc(O[C@H]2C(C)(C)[C@H](NC(=O)c3ccc(N4CCC(CN5CCC(n6ccc7c(N8CCC(=O)NC8=O)cccc76)CC5)CC4)cc3)C2(C)C)ccc1C#N` [Example 16, N-((1r,3r)-3-(4-Cyano-3-methoxyphenoxy)-2,2,4,4-tetramethylcyclobutyl)-4-(4-((4-(4-(2,4-dioxotetrahydropyrimidin-1(2H)-yl)-1H-indol-1-yl)piperidin-1-yl)methyl)piperidin-1-yl)benzamide], the greatest degradation seen (Dmax) in assay [1] and in assay [2] was at least 80% throughout.
On to `COc1cc(O[C@H]2C(C)(C)[C@H](NC(=O)c3ccc(N4CCC(CN5CCC(n6ncc7c(N8CCC(=O)NC8=O)nccc76)CC5)CC4)c(F)c3)C2(C)C)ccc1C#N` [Example 20, N-((1r,3r)-3-(4-Cyano-3-methoxyphenoxy)-2,2,4,4-tetramethylcyclobutyl)-4-(4-((4-(4-(2,4-dioxotetrahydropyrimidin-1(2H)-yl)-1H-pyrazolo[4,3-c]pyridin-1-yl)piperidin-1-yl)methyl)piperidin-1-yl)-3-fluorobenzamide], for which the Dmax in assay [1] and in assay [2] was at least 80% throughout.
As to `CC1(C)[C@H](NC(=O)c2ccc(N3CCC(CN4CCC(n5ccc6c(N7CCC(=O)NC7=O)ncnc65)CC4)CC3)cc2)C(C)(C)[C@H]1Oc1ccc(C#N)c2ncccc12` [Example 28, N-((1r,3r)-3-((8-Cyanoquinolin-5-yl)oxy)-2,2,4,4-tetramethylcyclobutyl)-4-(4-((4-(4-(2,4-dioxotetrahydropyrimidin-1(2H)-yl)-7H-pyrrolo[2,3-d]pyrimidin-7-yl)piperidin-1-yl)methyl)piperidin-1-yl)benzamide], the Dmax in assay [1] and in assay [2] was at least 80% throughout.
With `CC1(C)[C@H](NC(=O)c2cc(F)c(N3CCC(CN4CCC(n5ncc6c(N7CCC(=O)NC7=O)cccc65)CC4)CC3)c(F)c2)C(C)(C)[C@H]1Oc1ccc(C#N)c2ncccc12` [Example 30, N-((1r,3r)-3-((8-Cyanoquinolin-5-yl)oxy)-2,2,4,4-tetramethylcyclobutyl)-4-(4-((4-(4-(2,4-dioxotetrahydropyrimidin-1(2H)-yl)-1H-indazol-1-yl)piperidin-1-yl)methyl)piperidin-1-yl)-3,5-difluorobenzamide], the Dmax in assay [1] and in assay [2] was at least 80% in each case.
Consider `CC1(C)[C@H](NC(=O)c2ccc(N3CCC(CN4CCC(n5ccc6c(N7CCC(=O)NC7=O)cccc65)CC4)CC3)c(F)c2)C(C)(C)[C@H]1Oc1ccc(C#N)c2ncccc12` [Example 31, N-((1r,3r)-3-((8-Cyanoquinolin-5-yl)oxy)-2,2,4,4-tetramethylcyclobutyl)-4-(4-((4-(4-(2,4-dioxotetrahydropyrimidin-1(2H)-yl)-1H-indol-1-yl)piperidin-1-yl)methyl)piperidin-1-yl)-3-fluorobenzamide], for which the Dmax in assay [1] and in assay [2] was at least 80% throughout.
For the compound `CC1(C)[C@H](NC(=O)c2ccc(N3CCC(CN4CCC(n5ccc6c(N7CCC(=O)NC7=O)cc(F)cc65)CC4)CC3)c(F)c2)C(C)(C)[C@H]1Oc1ccc(C#N)c2ncccc12` [Example 32, N-((1r,3r)-3-((8-Cyanoquinolin-5-yl)oxy)-2,2,4,4-tetramethylcyclobutyl)-4-(4-((4-(4-(2,4-dioxotetrahydropyrimidin-1(2H)-yl)-6-fluoro-1H-indol-1-yl)piperidin-1-yl)methyl)piperidin-1-yl)-3-fluorobenzamide], the greatest degradation seen (Dmax) in assay [1] and in assay [2] was at least 80% in each case.
